Source: patent publication US20060263302A1, “Systemic oxygenation via gastric perfusion with perfluorocarbon (PFC)” (Thomas Jefferson University, priority 2005, published 2006)
Several values for one entry are separate records, joined by “and”; a condition that tells them apart may be missing. Identical values can stand only once.

Key:
[1] = Properties of perfluorocarbon (physical characteristics of neat F44E); format: physicochemical
Text: Perfluorocarbon: Seventy liters of neat perfluorocarbon F44E (trans-bis-perfluorobutyl ethylene) were provided as a generous gift from Neuron Therapeutics, Inc (Malvern, Pa.). This perfluorocarbon is clear, colorless, odorless, immiscible with water or blood and has the physical characteristics listed in Table 1.

[2] = system: Sus scrofa pigs; experiment: Peritoneal perfusion with perfluorocarbon in pigs made hypoxic by ventilation with subatmospheric oxygen; arterial blood gases; format: in vivo; settings: for Fitted mean PaO2 / Observed mean PaO2: pigs, peritoneal perfusion; for Fitted treatment effect: mean PaO2 difference perfluorocarbon versus saline / Observed treatment effect: mean PaO2 difference perfluorocarbon versus saline: oxygenation on
Protocol: Animals: Fifteen Sus scrofa pigs weighing 45-55 kg were used for the experiments. All experiments were approved by the Thomas Jefferson University Institutional Animal Care and Use Committee. The care and handling of all animals were in accord with United States Department of Agriculture guidelines.
Surgical procedure: The animals were induced with Telazol (Fort Dodge Animal Health, Fort Dodge, Iowa) 5 mg/kg injected intramuscularly (IM), after which an intravenous catheter was placed in an ear vein and 30 mg of Propofol (Baxter, Irvine, Calif.) was injected intravenously (IV). The animals were then intubated with a 7.5 mm internal diameter endotracheal tube (Mallinckrodt Inc., St. Louis, Mo.) and maintained with isoflurane inhalation anesthesia, using intermittent Propofol injections for any evidence of discomfort or awakening. The animals were placed on a Harvard Apparatus Dual Phase Control Respirator Pump (South Natick, Mass.) mechanical ventilator with a tidal volume of 10-15 ml/kg and a rate of 12-15 breaths per minute. Prior to subjecting the animal to hypoxia, the respiratory rate was occasionally adjusted in an effort to maintain a neutral pH, as determined by arterial blood gas measurements. Electrocardiography leads were placed in the standard 3-lead positions on each animal, starting at the time of induction, and continuously monitored throughout the experiment. Oxygen saturation was also measured with a Vet/Ox Plus 4700 (SDI, Waukesha, Wis.) pulse oxymeter with the probe placed on the animal's tongue. Once under general anesthesia and in the supine position, a cervical cut down was performed through which a Swan-Ganz right heart catheter (Edwards Lifesciences, Irvine, Calif.) was placed via the internal jugular vein and an 18-gauge angiocatheter was placed in the common carotid artery for access to the central arterial system for blood pressure monitoring and arterial blood gas measurements. Both of these lines were transduced using a pressure monitoring kit with a TruWave pressure transducer (Edwards Lifesciences, Irvine, Calif.) and connected to a Hewlett-Packard Monitor 78834A (Palo Alto, Calif.) system for monitoring the systemic and pulmonary arterial pressures and the central venous pressure.
After placement of the arterial and venous lines, a lower midline laparotomy was performed. A 28 French venous return cannula catheter (Edwards Lifesciences, Irvine, Calif.) was placed in the left paracolic gutter and brought out through a separate site in the left lower quadrant and sutured in place using a number 1 Prolene suture (Ethicon, Sommerville, N.J.). A 42 French venous return cannula (Edwards Lifesciences, Irvine, Calif.) was placed in an identical manner on the right side, with the tip lodged above the dome of the liver. The abdomen was then closed in a single layer with a running number I Prolene. In the first two animals in each experimental group, an additional 14 French catheter (Edwards Lifesciences, Irvine, Calif.) was placed near the midline for pressure monitoring purposes and was maintained in a vertical attitude, attached to a ruler such that the height of the column of fluid could be easily monitored. Peritoneal pressure measurements in centimeters of H2O were calculated by multiplying column height by the correction factor 1.67 (specific gravity of trans-bis-perfluorobutyl ethylene).
Hypoxia circuit: A Matrx anesthesia machine (Orchard Park, N.Y.) was used for blending gasses and isoflurane inhaled anesthetic. Pure nitrogen, rather than filtered room air, was mixed with pure oxygen to achieve subatmospheric concentrations of oxygen. The animal was ventilated using a standard bifurcated anesthesia circuit to maintain unidirectional flow of gasses. A Datex machine (Puritan-Bennett Corporation, Overland Park, Kans.) was attached to the ventilation circuit and allowed real-time monitoring of the oxygen and anesthetic agent concentration. […]

specific gravity (correction factor for peritoneal pressure) [1]: 1.67
Carbon dioxide capacity ([1]; neat perfluorocarbon F44E): 200 vol %
Oxygen capacity ([1]; neat perfluorocarbon F44E): 50 vol %
Specific gravity ([1]; neat perfluorocarbon F44E): 1.668 g/cc
SMILES: FC(F)(F)C(F)(F)C(F)(F)C(F)(F)/C=C/C(F)(F)C(F)(F)C(F)(F)C(F)(F)F [perfluorocarbon, trans-bis-perfluorobutyl ethylene]
Fitted mean PaO2 ([2]; FiO2 10%, O2 Off): 25.7 mm Hg
Observed mean PaO2 ([2]; FiO2 10%, O2 Off): 28.0 mm Hg
Fitted mean PaO2 ([2]; FiO2 10%, O2 On): 35.2 mm Hg
Observed mean PaO2 ([2]; FiO2 10%, O2 On): 36.7 mm Hg
Observed mean PaO2 ([2]; FiO2 10%, O2 On, listed as oxygenated perfluorocarbon): 36.7±8.4 mm Hg
Fitted mean PaO2 ([2]; FiO2 12%, O2 Off): 38.5 mm Hg
Observed mean PaO2 ([2]; FiO2 12%, O2 Off): 37.1 mm Hg
Fitted mean PaO2 ([2]; FiO2 12%, O2 On): 44.5 mm Hg
Observed mean PaO2 ([2]; FiO2 12%, O2 On): 43.8 mm Hg
Fitted mean PaO2 ([2]; FiO2 14%, O2 Off): 51.3 mm Hg
Observed mean PaO2 ([2]; FiO2 14%, O2 Off): 48.8 mm Hg
Fitted mean PaO2 ([2]; FiO2 14%, O2 On): 53.9 mm Hg
Observed mean PaO2 ([2]; FiO2 14%, O2 On): 55.3 mm Hg
Observed mean PaO2 ([2]; FiO2 14%, O2 On, listed as oxygenated perfluorocarbon): 55.3±7.6 mm Hg and 55.3 mm Hg
arterial oxygen saturation (SaO2) ([2]; FiO2 14%, oxygenated perfluorocarbon perfusion (73% with oxygenated saline)): 89%
Fitted mean PaO2 ([2]; FiO2 16%, O2 Off): 64.2 mm Hg
Observed mean PaO2 ([2]; FiO2 16%, O2 Off): 63.7 mm Hg
Fitted mean PaO2 ([2]; FiO2 16%, O2 On): 63.3 mm Hg
Observed mean PaO2 ([2]; FiO2 16%, O2 On): 64.4 mm Hg
Fitted mean PaO2 ([2]; FiO2 18%, O2 Off): 77.0 mm Hg
Observed mean PaO2 ([2]; FiO2 18%, O2 Off): 79.8 mm Hg
Fitted mean PaO2 ([2]; FiO2 18%, O2 On): 72.7 mm Hg
Observed mean PaO2 ([2]; FiO2 18%, O2 On): 68.7 mm Hg
Observed mean PaO2 ([2]; FiO2 18%, O2 On, listed as oxygenated perfluorocarbon): 68.7±10.4 mm Hg
group-by-oxygenation interaction effect ([2]; average across FiO2 values): about 6.4 mmHg
average mean PaO2 difference perfluorocarbon versus saline ([2]; oxygenation off, across all FiO2 values): 6.4 mmHg
Fitted treatment effect: mean PaO2 difference perfluorocarbon versus saline ([2]; FiO2 10%): 9.6 mmHg
Observed treatment effect: mean PaO2 difference perfluorocarbon versus saline ([2]; FiO2 10%): 8.1 mmHg
Fitted treatment effect: mean PaO2 difference perfluorocarbon versus saline ([2]; FiO2 12%): 11.4 mmHg
Observed treatment effect: mean PaO2 difference perfluorocarbon versus saline ([2]; FiO2 12%): 12.4 mmHg
Fitted treatment effect: mean PaO2 difference perfluorocarbon versus saline ([2]; FiO2 14%): 13.2 mmHg
Observed treatment effect: mean PaO2 difference perfluorocarbon versus saline ([2]; FiO2 14%): 15.9 mmHg
Fitted treatment effect: mean PaO2 difference perfluorocarbon versus saline ([2]; FiO2 16%): 15.0 mmHg
Observed treatment effect: mean PaO2 difference perfluorocarbon versus saline ([2]; FiO2 16%): 18.2 mmHg
Fitted treatment effect: mean PaO2 difference perfluorocarbon versus saline ([2]; FiO2 18%): 16.8 mmHg
Observed treatment effect: mean PaO2 difference perfluorocarbon versus saline ([2]; FiO2 18%): 8.2 mmHg
arterial or venous partial pressure of carbon dioxide (PaCO2 or PvCO2), difference between groups ([2]; perfluorocarbon versus saline, irrespective of FiO2): No statistically significant difference
